Experimental data: patent publication US20240299321A1, “METHODS TO SENSITIZE CANCER CELLS AND STANDARDIZED SCREENING ASSAY FOR IMMUNOTHERAPY” (THE TRUSTEES OF INDIANA UNIVERSITY, priority 2020, published 2024)

Legend:
mouse melanoma model = settings: reported; cited from earlier work
[1] = test system: EO771 (Luc+OVA+) tumor organoids; assay: Toxicity on tumor organoids without T cells (WST-1 viability); assay type: cell-based, mouse; settings: no T cells
Procedure: Tumor cell viability assay: For 2D tumor cell culture, tumor cells were seeded into 96 well plates at 2,000 cells per well and cultured for 72 h. For tumor organoids, tumor organoids with diameter between 70 and 150 μm were seeded at 50 organoids per well into 96-well microplates with ultra-low attachment surface (Corning). Cells or tumor organoids were treated with indicated compound at the final concentration of 1 μM. After 3-day culture, tumor organoids were dissociated into single cells using TrypLE Express (Corning) at 37° C. with a shaking velocity of 500 rpm on a thermomixer (Eppendorf) for 15 min. The 96-well microplates were added with 10 μl/well of Premix WST-1 reagent (TaKaRa) and incubated for 1 h. The microplates were read at absorbance of 450 nm on the Epoch microreader (BioTek). The toxicity of the epigenetic drugs was quantified using the premix WST-1 reagent according to the manufacturer's protocol.

[2] = Organ damage in treated mice; assay type: in vivo
EO771 tumors = assay: EO771 orthotopic breast tumor model in immunodeficient nude (NU/J) mice; assay type: in vivo; settings: for tumor growth and weight: immune-deficient nude mice, 20 mg kg-1, vs control group; for size of gross dissected mammary EO771 tumors: nude mice, 20 mg kg−1, harvested day 18
Procedure: Animal studies: All animal experiments were performed in accordance with the National Institutes of Health's Animal Use Guidelines and protocols approved by the Animal Care and Use Committee of Indiana University School of Medicine. […] Each mouse was injected with a total of 2×10^5 tumor cells. 5 mice were used in each group. Tumors were measured in two dimensions using a manual caliper. Tumor volume was calculated using the following formula: V=0.5×length×width×width. Tumor volume was measured every 3 days. Tumors were harvested 22 days after injection. The tumor growth, volume and weight were analyzed. To evaluate the anti-tumor effect of drugs in immunocompetent C57BL/6 mice and immunodeficient nude (NU/J) mice, 2×10^5 EO771 cells were orthotopically injected into fat pad of the 4th mammary gland in female mice. […] For CD4/CD8 depletion experiment, the tumor-bearing mice were randomly divided into 7 groups (n=8 mice/group) including isotype control (rat IgG2a, Bioxcell), isotype control+CUDC-101, isotype control+BML-210, anti-CD8 (Clone: 53-6.72, Bioxcell)+CUDC-101, anti-CD8+BML-210, anti-CD4 (Clone: GK1.5, Bioxcell)+CUDC-101, or anti-CD4+BML-210. Intraperitoneal injection of inhibitors (20 mg kg-1) and anti-CD4/CD8 (10 mg kg-1) were administrated to the mice by 3 times/week for 2 weeks. The tumors were harvested at day 18 (NU/J mice) or day 28 (C57BL/6 mice) for further analyses. In immune checkpoint blockade experiment, 2×10^5 EO771 cells were orthotopically injected into fat pad of the 4th mammary gland in female C57BL/6 mice. From day 10, the tumor-bearing mice were randomly divided into each treatment group (n=8 mice/group), and the mice were treated with IgG2a isotype control antibody (clone 2A3, Bioxcell), BML-210 (20 mg kg-1), anti-PD-1 (200 μg/mouse, Bioxcell), or BML-210 and anti-PD-1 combo. The treatment was done 3 times/week for 2 weeks. Tumors were harvested at day 26 post injection and the tumors were analyzed by IHC staining, flow cytometry, ELISA or CyTOF assay.

MDA-MB-468 cells = assay: Gene expression in MDA-MB-468 cells (quantitative RT-PCR); assay type: cell-based, human; settings: BML-210 1.0 μM, FIG. 4B
EO771 cells = assay: Gene expression in EO771 cells (RNA-seq, quantitative RT-PCR); assay type: cell-based, mouse
Procedure: Quantitative reverse transcription PCR (RT-PCR): Mouse EO771 cells were treated with and without BML-210 drug for 48 h. Total RNA was isolated from the cells using TRIzol (Ambion, Lot: 260808) and the miRNeasy Mini kit (Qiagen, 157029493, Thermo Scientific). The quality of the RNA was quantified by a Nano Drop 2000 spectrophotometer. A total of 1 μg RNA was reverse transcribed into cDNA using the […] superMix reagent (Quantabio, 66141329). Quantitative PCR was performed using SYBR Green […] low Rox reagent (TaKaRa) on a Quantstudio real-time PCR system (ThermoFisher Scientific). RNA sequencing: Total RNA was extracted from EO771 cells using TRIzol (Ambion) and the miRNeasy Mini kit (Qiagen). The quantity and quality of the RNA was evaluated by an Agilent Bioanalyzer 2100. 100 ng of total RNA from each sample was used, from which ribosomal RNA was removed by the QIAseq FastSelect rRNA Removal HMR Kit (Qiagen). The cDNA library was constructed using the KAPA RNA Hyper Prep Kit (Roche Corporate) and the quality was accessed by the Qubit and Agilent Bioanalyzer. The library pool was sequenced in 100b paired-end read format on NovaSeq 6000 (Illumina) at the Center for Medical Genomics, Indiana University School of Medicine (IUSM). RNA-seq analysis: The reads were mapped to the mouse genome mm10 using STAR (v2.5)65. RNA-seq aligner with the following parameter: “--outSAMmapqUnique 60”. Uniquely mapped sequencing reads were assigned to GENCODE M22 genes using feature Counts (v1.6.2)66 with the following parameters: “-s 2 -p -Q 10”. […] The data were visualized with volcano plot using MATLAB. The gene enrichment analysis on DEGs from the Kyoto Encyclopedia of Genes and Genomes (KEGG) pathway database and Gene Ontology database was performed using the Database for Annotation, Visualization and Integrated Discovery (DAVID) functional analysis69. The analysis was visualized using MATLAB with q value (-log 10) and gene number in each GO and pathway. Gene set enrichment analysis (GSEA) of the antigen processing and presentation pathway was carried out with GSEA software70.

c1ccc([C@@H]2C[C@H]2NC2CCNCC2)cc1 [GSK-LSD1]
CD8+ T cell infiltration and anti-tumor response (mouse melanoma model): promote CD8+ T cell infiltration and anti-tumor response | effect on the tumor organoids in the absence of T cells [1]: no notable effect

C#Cc1cccc(Nc2ncnc3cc(OC)c(OCCCCCCC(=O)NO)cc23)c1 [CUDC-101]
effect on the tumor organoids in the absence of T cells [1]: no notable effect | visible damages in the heart, kidney, spleen, liver and lung [2]: No visible damages | tumor growth and weight (EO771 tumors): No significant differences | size of gross dissected mammary EO771 tumors (EO771 tumors): no significant difference in size

Nc1ccccc1NC(=O)CCCCCCC(=O)Nc1ccccc1 [BML-210]
effect on the tumor organoids in the absence of T cells [1]: no notable effect | visible damages in the heart, kidney, spleen, liver and lung [2]: No visible damages | expression of antigen processing and presentation DEGs (qPCR) (MDA-MB-468 cells): most of DEGs had higher expression levels | expression of antigen processing and presentation DEGs (qPCR) (EO771 cells; EO771, BML-210 1.0 μM, FIG. 4A): most of DEGs had higher expression levels | MHC-I genes (H2-D1, H2-K2, B2M), lysosome gene (Lamp1), endosome gene (Hspa8) (EO771 cells; RNA-seq): induced | genome-wide gene expression profile (GO enrichment) (EO771 cells; RNA-seq): upregulation of genes particularly enriched in lysosome, phagosome, antigen processing and presentation pathways | tumor growth and weight (EO771 tumors): No significant differences | size of gross dissected mammary EO771 tumors (EO771 tumors): no significant difference in size
